Measured values from patent US20260242398A1, “BENZOPYRIMIDIN-4(3H)-ONES AS PI3K INHIBITORS” (OnKure, Inc., priority 2022, published 2026).
Where two headings read alike, the source gives them in different places.

How the values were obtained:
Type in all cases: cell-based
[1] = system: SKBR3 cells express WT PI3Ka; assay: In vitro cell proliferation (CellTiter-Glo, 72 hours), SKBR3 cells; details: inhibition of proliferation
Protocol: (§1) In Vitro Cell Proliferation: Determination of EC50 Values for Inhibition of Proliferation in T47D Cells Expressing Mutant PI3Ka (H1047R) Mutation and SKBR3 Cells Express WT PI3Ka.
(§2) T47D or SKBR3 cells were trypsinized, resuspended in culture media and seeded onto assay ready plates. T47D culture media consisted of RPMI, 10% FBS and Insulin (0.2 units/mL). SKBR3 culture media consisted of McCoys 5a and 10% FBS. Cells were seeded at a density of 1,500 cells/well and dispensed in 50 uL onto 384 well assay ready plates (Corning, 89089-790). Assay ready plates had previously been stamped with 10-point dilutions of compounds of interest, as well as controls. The Echo655 is used to stamp plates at 40 nL of compound or DMSO. Cells were grown for 72 hours at 37° Celsius and 5% CO2. After 72 hours, cells were equilibrated at room temperature for 15 minutes. 30 uL of CellTiter-Glo reagent is added to the plate, which is then shaken for 30 minutes at temperature at 300-500 rpm. Cells are then read on an Envision plate reader. The percentage of inhibition of proliferation was calculated using the following formula: % Inhibition=100×(LumD−LumSample)/(LumD−LumInh), where D is obtained from cells treated with 0.1% DMSO only; Inh is obtained from cells treated with 10 uM Alpelisib. The effective concentration achieving 50% inhibition of proliferation (EC50) is calculated by fitting the Curve using XWfit (v5.3.1.3), equation 201: Y=Bottom+(Top−Bottom)/(1+10^((Log EC50−X)*HillSlope)).

[2] = system: phosphorylation of AKT (pAKT) in T47D cells expressing mutant PI3Ka (H1047R); assay: In vitro cell pAKT (Ser473) HTRF, T47D cells; details: inhibition of pAKT, read-out: Avg T-47D IC50
Protocol: (§3) In Vitro Cell pAKT: Determination of IC50 Values for Inhibition of Phosphorylation of AKT (pAKT) in T47D Cells Expressing Mutant PI3Ka (H1047R) Mutation and SKBR3 Cells Express WT PI3Ka.
(§4) T47D or SKBR3 cells were trypsinized, resuspended in culture media and seeded onto assay ready plates. T47D culture media consisted of RPMI, 10% FBS and Insulin (0.2 units/mL). SKBR3 culture media consisted of McCoy's 5a and 10% FBS. Cells were seeded at a density of 5000 cells/well and dispensed in 12.5 uL onto 384 well assay ready plates (Perkin Elmer, 6008238)). Assay ready plates had previously been stamped with 10-point dilutions of compounds of interest, as well as controls. The Echo655 is used to stamp plates at 12.5 nL of compound or DMSO. Cells were grown for 6 hour at 37° Celsius and 5% CO2. After 6 hour, 4 uL of Lysis buffer reagent was added to the plate, which was then centrifuged for 1 minute at 1000 rpm. Then the plate was incubated at room temperature for 30 minutes. After 30 minutes, 4 uL of antibody mix containing Eu Cryptate, d2 Cryptate, and detection buffer, was added to the plate. The plate was centrifuged for 1 minute at 1000 rpm and then incubated overnight at room temperature. The plate was read on an Envision plate reader using the HTRF protocol. The percentage of inhibition of AKT phosphorylation was calculated using the following formula: % Inhibition=100×(pAKTHC−pAKTSample)/(pAKTHC−pAKTLC)), where pAKTHC is obtained from cells treated with 0.1% DMSO only; pAKTLC is obtained from cells treated with 10 uM Alpelisib. The IC50 (concentration achieving 50% inhibition of pAKT) is calculated by fitting the Curve using XWfit (v5.3.1.3), equation 201: Y=Bottom+(Top−Bottom)/(1+10^((Log IC50−X)*HillSlope)).

[3] = system: phosphorylation of AKT (pAKT) in SKBR3 cells express WT PI3Ka; assay: In vitro cell pAKT (Ser473) HTRF, SKBR3 cells; details: inhibition of pAKT
Protocol: as §3, §4

[4] = system: T47D cells expressing mutant PI3Ka (H1047R); assay: In vitro cell proliferation (CellTiter-Glo, 72 hours), T47D cells; details: inhibition of proliferation, read-out: Avg T-47D EC50
Protocol: as §1, §2

Row | SMILES | EC50 ([1]; Homo sapiens, SK-BR-3, 72 h) [µM] | IC50 ([2]; 6 hour) [µM] | IC50 ([3]; Homo sapiens, SK-BR-3, 6 h) [µM] | EC50 [4] [µM] | EC50 [1] [µM] | IC50 ([3]; 6 hour) [µM] | IC50 ([2]; Homo sapiens, T47D, 6 h) [µM] | EC50 ([4]; Homo sapiens, T47D, 72 h) [µM]
1 | Cc1cc(C(C)Nc2ccccc2C(=O)O)c2nc(N3Cc4ccc(C#N)cc4C3)n(C)c(=O)c2c1 (single isomer, unassigned) [Example 17, 2-((1-(2-(5-cyanoisoindolin-2-yl)-3,6-dimethyl-4-oxo-3,4-dihydroquinazolin-8-yl)ethyl)amino)benzoic acid] | > 15 | 0.001 to 1 | > 15 | 0.001 to 0.5 | – | – | – | –
2 | Cc1cc2c(=O)n(C)c(N3CCN(CC(F)(F)F)CC3)nc2c(C(C)Nc2ccccc2C(=O)O)c1F (single isomer, unassigned) [Example 20, 2-((1-(7-fluoro-3,6-dimethyl-4-oxo-2-(4-(2,2,2-trifluoroethyl)piperazin-1-yl)-3,4-dihydroquinazolin-8-yl)ethyl)amino)benzoic acid] | > 15 | 0.001 to 1 | > 15 | 0.5 to 2 | – | – | – | –
3 | Cc1cc2c(=O)n(C)c(N3CCN(CC(F)(F)F)CC3)nc2c(C(C)Nc2ccccc2C(=O)O)c1F (single isomer, unassigned) [Example 21, 2-((1-(7-fluoro-3,6-dimethyl-4-oxo-2-(4-(2,2,2-trifluoroethyl)piperazin-1-yl)-3,4-dihydroquinazolin-8-yl)ethyl)amino)benzoic acid] | – | > 15 | – | > 15 | > 15 | > 15 | – | –
4 | Cc1cc(C(C)Nc2ccccc2C(=O)O)c2nc(SCc3ccc(Cl)c(OC(F)(F)F)c3)n(C)c(=O)c2c1 (single isomer, unassigned) [Example 31, 2-((1-(2-((4-chloro-3-(trifluoromethoxy)benzyl)thio)-3,6-dimethyl-4-oxo-3,4-dihydroquinazolin-8-yl)ethyl)amino)benzoic acid] | 2 to 15 | – | > 15 | – | – | – | > 15 | 2 to 15
5 | Cc1cc(C(C)Nc2ccccc2C(=O)O)c2nc(SCc3ccc(Cl)c(OC(F)(F)F)c3)n(C)c(=O)c2c1 (single isomer, unassigned) [Example 32, 2-((1-(2-((4-chloro-3-(trifluoromethoxy)benzyl)thio)-3,6-dimethyl-4-oxo-3,4-dihydroquinazolin-8-yl)ethyl)amino)benzoic acid] | – | > 15 | – | 2 to 15 | 2 to 15 | > 15 | – | –
6 | CC(Nc1ccc(F)cc1C(=O)O)c1cc(F)cc2c(=O)n(C)c(N3CCN(CC(F)(F)F)CC3)nc12 (single isomer, unassigned) [Example 33, 5-fluoro-2-((1-(6-fluoro-3-methyl-4-oxo-2-(4-(2,2,2-trifluoroethyl)piperazin-1-yl)-3,4-dihydroquinazolin-8-yl)ethyl)amino)benzoic acid] | > 15 | 0.001 to 1 | – | 0.001 to 0.5 | – | > 15 | – | –
7 | CC(Nc1ccc(F)cc1C(=O)O)c1cc(F)cc2c(=O)n(C)c(N3CCN(CC(F)(F)F)CC3)nc12 (single isomer, unassigned) [Example 34, 5-fluoro-2-((1-(6-fluoro-3-methyl-4-oxo-2-(4-(2,2,2-trifluoroethyl)piperazin-1-yl)-3,4-dihydroquinazolin-8-yl)ethyl)amino)benzoic acid] | – | > 15 | – | > 15 | > 15 | 5 to 15 | – | –

Now from value to compound:

Row | EC50 ([1]; Homo sapiens, SK-BR-3, 72 h) [µM] | IC50 ([2]; 6 hour) [µM] | IC50 ([3]; Homo sapiens, SK-BR-3, 6 h) [µM] | EC50 [4] [µM] | EC50 [1] [µM] | IC50 ([3]; 6 hour) [µM] | IC50 ([2]; Homo sapiens, T47D, 6 h) [µM] | EC50 ([4]; Homo sapiens, T47D, 72 h) [µM] | SMILES
8 | – | > 15 | – | > 15 | > 15 | > 15 | – | – | Cc1cc(C(C)Nc2ccccc2C(=O)O)c2nc(N3Cc4ccc(C#N)cc4C3)n(C)c(=O)c2c1 (single isomer, unassigned) [Example 18, 2-((1-(2-(5-cyanoisoindolin-2-yl)-3,6-dimethyl-4-oxo-3,4-dihydroquinazolin-8-yl)ethyl)amino)benzoic acid]
9 | – | 0.001 to 1 | > 15 | 0.5 to 2 | > 15 | – | – | – | CC(Nc1ccccc1C(=O)O)c1cc(Cl)cc2c(=O)n(C)c(N3CCC(C)(C)CC3)nc12 (single isomer, unassigned) [Example 22, 2-((1-(6-chloro-2-(4,4-dimethylpiperidin-1-yl)-3-methyl-4-oxo-3,4-dihydroquinazolin-8-yl)ethyl)amino)benzoic acid]
10 | – | > 15 | – | 2 to 15 | 2 to 15 | > 15 | – | – | CC(Nc1ccccc1C(=O)O)c1cc(Cl)cc2c(=O)n(C)c(N3CCC(C)(C)CC3)nc12 (single isomer, unassigned) [Example 23, 2-((1-(6-chloro-2-(4,4-dimethylpiperidin-1-yl)-3-methyl-4-oxo-3,4-dihydroquinazolin-8-yl)ethyl)amino)benzoic acid]
11 | 2 to 15 | 0.001 to 1 | > 15 | 0.001 to 0.5 | – | – | – | – | CC(Nc1ccc(F)cc1C(=O)O)c1cc(Cl)cc2c(=O)n(C)c(N3CCN(CC(F)(F)F)CC3)nc12 (single isomer, unassigned) [Example 24, 2-((1-(6-chloro-3-methyl-4-oxo-2-(4-(2,2,2-trifluoroethyl)piperazin-1-yl)-3,4-dihydroquinazolin-8-yl)ethyl)amino)-5-fluorobenzoic acid]
12 | – | > 15 | – | 2 to 15 | 2 to 15 | > 15 | – | – | CC(Nc1ccc(F)cc1C(=O)O)c1cc(Cl)cc2c(=O)n(C)c(N3CCN(CC(F)(F)F)CC3)nc12 (single isomer, unassigned) [Example 25, 2-((1-(6-chloro-3-methyl-4-oxo-2-(4-(2,2,2-trifluoroethyl)piperazin-1-yl)-3,4-dihydroquinazolin-8-yl)ethyl)amino)-5-fluorobenzoic acid]
13 | > 15 | 0.001 to 1 | > 15 | 0.5 to 2 | – | – | – | – | CC(Nc1ccccc1C(=O)O)c1cc(Cl)cc2c(=O)n(C)c(N3CCN(CC(F)(F)F)CC3)nc12 (single isomer, unassigned) [Example 26, 2-((1-(6-chloro-3-methyl-4-oxo-2-(4-(2,2,2-trifluoroethyl)piperazin-1-yl)-3,4-dihydroquinazolin-8-yl)ethyl)amino)benzoic acid]
14 | – | > 15 | – | > 15 | > 15 | > 15 | – | – | CC(Nc1ccccc1C(=O)O)c1cc(Cl)cc2c(=O)n(C)c(N3CCN(CC(F)(F)F)CC3)nc12 (single isomer, unassigned) [Example 27, 2-((1-(6-chloro-3-methyl-4-oxo-2-(4-(2,2,2-trifluoroethyl)piperazin-1-yl)-3,4-dihydroquinazolin-8-yl)ethyl)amino)benzoic acid]
15 | – | > 15 | – | 2 to 15 | 2 to 15 | > 15 | – | – | Cc1cc(C(C)Nc2ccc(F)cc2C(=O)O)c2nc(N3CCC(C)(C)CC3)n(C)c(=O)c2c1 (single isomer, unassigned) [Example 30, 2-((1-(2-(4,4-dimethylpiperidin-1-yl)-3,6-dimethyl-4-oxo-3,4-dihydroquinazolin-8-yl)ethyl)amino)-5-fluorobenzoic acid]
16 | – | > 15 | – | > 15 | > 15 | > 15 | – | – | CC(Nc1ccccc1C(=O)O)c1cc(F)cc2c(=O)n(C)c(N3CCN(CC(F)(F)F)CC3)nc12 (single isomer, unassigned) [Example 36, 2-((1-(6-fluoro-3-methyl-4-oxo-2-(4-(2,2,2-trifluoroethyl)piperazin-1-yl)-3,4-dihydroquinazolin-8-yl)ethyl)amino)benzoic acid]
